Test results as given in US12502362B2, “Inhibitors of nucleotidyltransferase superfamily enzymes as antibiotics” (priority 2017, dated 2025).
Where two headings read alike, the source gives them in different places.

Columns and labels:
[1] = system: S. aureus ATCC strains and MRSA; type: cell-based, Staphylococcus aureus
[2] = system: Staphylococcus epidermidis; type: cell-based
Protocol: (§1) It was also tested whether compounds #63 and #285 can inhibit other coagulase-negative Staphylococcus (CNS) including S. epidermidis, S. hominis, etc. […].

[3] = system: Staphylococcus hominis; type: cell-based
Protocol: as §1

[4] = system: Coagulase negative Staphylococcus; experiment: Antibiotic susceptibility of coagulase negative Staphylococcus strains; type: cell-based
[5] = Se1 (Staphylococcus epidermidis)
[6] = Se2 (Staphylococcus epidermidis)
[7] = Se3 (Staphylococcus epidermidis)
[8] = Se4 (Staphylococcus epidermidis)
[9] = Se5 (Staphylococcus epidermidis)
[10] = CNS1 (Coagulase negative Staphylococcus)
[11] = CNS2 (Coagulase negative Staphylococcus)

C[C@H]1c2cccc(O)c2C(=O)C2=C(O)[C@]3(O)C(=O)C(C(N)=O)=C(O)[C@@H](N(C)C)[C@@H]3[C@@H](O)[C@@H]21 [DOX, doxycycline]
S: Antibiotic susceptibility ([1]; S. aureus ATCC 25923) | Antibiotic susceptibility ([1]; S. aureus ATCC 29213) | Antibiotic susceptibility ([1]; S. aureus ATCC BAA 976) | Antibiotic susceptibility ([1]; S. aureus ATCC BAA 977) | Antibiotic susceptibility ([1]; S. aureus ATCC BAA 1026) | Antibiotic susceptibility ([1]; Sa1 (MRSA)) | Antibiotic susceptibility ([1]; Sa2 (MRSA)) | Antibiotic susceptibility ([1]; Sa3 (MRSA)) | Antibiotic susceptibility ([1]; Sa6 (MRSA)) | Antibiotic susceptibility ([1]; Sa7 (MRSA)) | Antibiotic susceptibility ([1]; Sa9 (MRSA)) | Antibiotic susceptibility ([1]; Sa11 (MRSA)) | Antibiotic susceptibility ([1]; Sa12 (MRSA)) | Antibiotic susceptibility ([1]; Sa14 (MRSA)) | Antibiotic susceptibility ([1]; Sa15 (MRSA)) | Antibiotic susceptibility ([1]; Sa16 (MRSA)) | Antibiotic susceptibility ([1]; Sa17 (MRSA)) | Antibiotic susceptibility ([1]; Sa18 (MRSA)) | Antibiotic susceptibility ([1]; Sa19 (MRSA)) | Antibiotic susceptibility ([1]; Sa20 (MRSA)) | Antibiotic susceptibility ([1]; Sa21 (MRSA)) | Antibiotic susceptibility ([1]; Sa22 (MRSA)) | Antibiotic susceptibility ([1]; Sa23 (MRSA)) | Antibiotic susceptibility [2, 5] | Antibiotic susceptibility [2, 6] | Antibiotic susceptibility [2, 7] | Antibiotic susceptibility [2, 8] | Antibiotic susceptibility [2, 9] | Antibiotic susceptibility ([3]; Sh1 (Staphylococcus hominis)) | Antibiotic susceptibility ([3]; Sh3 (Staphylococcus hominis)) | Antibiotic susceptibility [4, 10] | Antibiotic susceptibility [4, 11]
R: Antibiotic susceptibility ([3]; Sh2 (Staphylococcus hominis))

CN(C)c1cc(NC(=O)CNC(C)(C)C)c(O)c2c1C[C@H]1C[C@H]3[C@H](N(C)C)C(O)=C(C(N)=O)C(=O)[C@@]3(O)C(O)=C1C2=O [TGC, Tigecycline]
S: Antibiotic susceptibility ([1]; S. aureus ATCC 25923) | Antibiotic susceptibility ([1]; S. aureus ATCC 29213) | Antibiotic susceptibility ([1]; S. aureus ATCC BAA 976) | Antibiotic susceptibility ([1]; S. aureus ATCC BAA 977) | Antibiotic susceptibility ([1]; S. aureus ATCC BAA 1026) | Antibiotic susceptibility ([1]; Sa1 (MRSA)) | Antibiotic susceptibility ([1]; Sa2 (MRSA)) | Antibiotic susceptibility ([1]; Sa3 (MRSA)) | Antibiotic susceptibility ([1]; Sa6 (MRSA)) | Antibiotic susceptibility ([1]; Sa7 (MRSA)) | Antibiotic susceptibility ([1]; Sa9 (MRSA)) | Antibiotic susceptibility ([1]; Sa11 (MRSA)) | Antibiotic susceptibility ([1]; Sa12 (MRSA)) | Antibiotic susceptibility ([1]; Sa14 (MRSA)) | Antibiotic susceptibility ([1]; Sa15 (MRSA)) | Antibiotic susceptibility ([1]; Sa16 (MRSA)) | Antibiotic susceptibility ([1]; Sa17 (MRSA)) | Antibiotic susceptibility ([1]; Sa18 (MRSA)) | Antibiotic susceptibility ([1]; Sa19 (MRSA)) | Antibiotic susceptibility ([1]; Sa20 (MRSA)) | Antibiotic susceptibility ([1]; Sa21 (MRSA)) | Antibiotic susceptibility ([1]; Sa22 (MRSA)) | Antibiotic susceptibility ([1]; Sa23 (MRSA)) | Antibiotic susceptibility [2, 5] | Antibiotic susceptibility [2, 6] | Antibiotic susceptibility [2, 7] | Antibiotic susceptibility [2, 8] | Antibiotic susceptibility [2, 9] | Antibiotic susceptibility ([3]; Sh1 (Staphylococcus hominis)) | Antibiotic susceptibility ([3]; Sh2 (Staphylococcus hominis)) | Antibiotic susceptibility ([3]; Sh3 (Staphylococcus hominis)) | Antibiotic susceptibility [4, 10] | Antibiotic susceptibility [4, 11]

CO[C@H]1/C=C/O[C@@]2(C)Oc3c(C)c(O)c4c(O)c(c(/C=N/N5CCN(C)CC5)c(O)c4c3C2=O)NC(=O)/C(C)=C\C=C\[C@H](C)[C@H](O)[C@@H](C)[C@@H](O)[C@@H](C)[C@H](OC(C)=O)[C@@H]1C [RIF, Rifampin]
R: Antibiotic susceptibility ([1]; Sa15 (MRSA))
S: Antibiotic susceptibility ([1]; S. aureus ATCC 25923) | Antibiotic susceptibility ([1]; S. aureus ATCC 29213) | Antibiotic susceptibility ([1]; S. aureus ATCC BAA 976) | Antibiotic susceptibility ([1]; S. aureus ATCC BAA 977) | Antibiotic susceptibility ([1]; S. aureus ATCC BAA 1026) | Antibiotic susceptibility ([1]; Sa1 (MRSA)) | Antibiotic susceptibility ([1]; Sa2 (MRSA)) | Antibiotic susceptibility ([1]; Sa3 (MRSA)) | Antibiotic susceptibility ([1]; Sa6 (MRSA)) | Antibiotic susceptibility ([1]; Sa7 (MRSA)) | Antibiotic susceptibility ([1]; Sa9 (MRSA)) | Antibiotic susceptibility ([1]; Sa11 (MRSA)) | Antibiotic susceptibility ([1]; Sa12 (MRSA)) | Antibiotic susceptibility ([1]; Sa14 (MRSA)) | Antibiotic susceptibility ([1]; Sa16 (MRSA)) | Antibiotic susceptibility ([1]; Sa17 (MRSA)) | Antibiotic susceptibility ([1]; Sa18 (MRSA)) | Antibiotic susceptibility ([1]; Sa19 (MRSA)) | Antibiotic susceptibility ([1]; Sa20 (MRSA)) | Antibiotic susceptibility ([1]; Sa21 (MRSA)) | Antibiotic susceptibility ([1]; Sa22 (MRSA)) | Antibiotic susceptibility ([1]; Sa23 (MRSA)) | Antibiotic susceptibility [2] | Antibiotic susceptibility [3] | Antibiotic susceptibility [4, 10] | Antibiotic susceptibility [4, 11]
1/21: MRSA strains resistant ([1]; number of resistant strains out of 21 MRSA strains)

CC(=O)NC[C@H]1CN(c2ccc(N3CCOCC3)c(F)c2)C(=O)O1 [LZD, linezolid]
S: Antibiotic susceptibility ([1]; S. aureus ATCC 25923) | Antibiotic susceptibility ([1]; S. aureus ATCC 29213) | Antibiotic susceptibility ([1]; S. aureus ATCC BAA 976) | Antibiotic susceptibility ([1]; S. aureus ATCC BAA 977) | Antibiotic susceptibility ([1]; S. aureus ATCC BAA 1026) | Antibiotic susceptibility ([1]; Sa1 (MRSA)) | Antibiotic susceptibility ([1]; Sa2 (MRSA)) | Antibiotic susceptibility ([1]; Sa3 (MRSA)) | Antibiotic susceptibility ([1]; Sa5 (MRSA)) | Antibiotic susceptibility ([1]; Sa6 (MRSA)) | Antibiotic susceptibility ([1]; Sa7 (MRSA)) | Antibiotic susceptibility ([1]; Sa8 (MRSA)) | Antibiotic susceptibility ([1]; Sa9 (MRSA)) | Antibiotic susceptibility ([1]; Sa10 (MRSA)) | Antibiotic susceptibility ([1]; Sa11 (MRSA)) | Antibiotic susceptibility ([1]; Sa12 (MRSA)) | Antibiotic susceptibility ([1]; Sa14 (MRSA)) | Antibiotic susceptibility ([1]; Sa15 (MRSA)) | Antibiotic susceptibility ([1]; Sa16 (MRSA)) | Antibiotic susceptibility ([1]; Sa17 (MRSA)) | Antibiotic susceptibility ([1]; Sa18 (MRSA)) | Antibiotic susceptibility ([1]; Sa19 (MRSA)) | Antibiotic susceptibility ([1]; Sa20 (MRSA)) | Antibiotic susceptibility ([1]; Sa21 (MRSA)) | Antibiotic susceptibility ([1]; Sa22 (MRSA)) | Antibiotic susceptibility ([1]; Sa23 (MRSA)) | Antibiotic susceptibility [2, 5] | Antibiotic susceptibility [2, 6] | Antibiotic susceptibility [2, 7] | Antibiotic susceptibility [2, 8] | Antibiotic susceptibility [2, 9] | Antibiotic susceptibility ([3]; Sh1 (Staphylococcus hominis)) | Antibiotic susceptibility ([3]; Sh2 (Staphylococcus hominis)) | Antibiotic susceptibility ([3]; Sh3 (Staphylococcus hominis)) | Antibiotic susceptibility [4, 10] | Antibiotic susceptibility [4, 11]

CCCCCCCCCC(=O)N[C@@H](Cc1c[nH]c2ccccc12)C(=O)N[C@H](CC(N)=O)C(=O)N[C@@H](CC(=O)O)C(=O)N[C@@H]1C(=O)NCC(=O)N[C@@H](CCCN)C(=O)N[C@@H](CC(=O)O)C(=O)N[C@H](C)C(=O)N[C@@H](CC(=O)O)C(=O)NCC(=O)N[C@H](CO)C(=O)N[C@@H]([C@H](C)CC(=O)O)C(=O)N[C@@H](CC(=O)c2ccccc2N)C(=O)O[C@@H]1C [DAP, daptomycin]
S: Antibiotic susceptibility ([1]; S. aureus ATCC 25923) | Antibiotic susceptibility ([1]; S. aureus ATCC 29213) | Antibiotic susceptibility ([1]; S. aureus ATCC BAA 976) | Antibiotic susceptibility ([1]; S. aureus ATCC BAA 977) | Antibiotic susceptibility ([1]; S. aureus ATCC BAA 1026) | Antibiotic susceptibility ([1]; Sa1 (MRSA)) | Antibiotic susceptibility ([1]; Sa2 (MRSA)) | Antibiotic susceptibility ([1]; Sa3 (MRSA)) | Antibiotic susceptibility ([1]; Sa6 (MRSA)) | Antibiotic susceptibility ([1]; Sa7 (MRSA)) | Antibiotic susceptibility ([1]; Sa9 (MRSA)) | Antibiotic susceptibility ([1]; Sa11 (MRSA)) | Antibiotic susceptibility ([1]; Sa12 (MRSA)) | Antibiotic susceptibility ([1]; Sa15 (MRSA)) | Antibiotic susceptibility ([1]; Sa16 (MRSA)) | Antibiotic susceptibility ([1]; Sa17 (MRSA)) | Antibiotic susceptibility ([1]; Sa18 (MRSA)) | Antibiotic susceptibility ([1]; Sa19 (MRSA)) | Antibiotic susceptibility ([1]; Sa20 (MRSA)) | Antibiotic susceptibility ([1]; Sa21 (MRSA)) | Antibiotic susceptibility ([1]; Sa22 (MRSA)) | Antibiotic susceptibility ([1]; Sa23 (MRSA)) | Antibiotic susceptibility [2, 5] | Antibiotic susceptibility [2, 6] | Antibiotic susceptibility [2, 7] | Antibiotic susceptibility [2, 8] | Antibiotic susceptibility [2, 9] | Antibiotic susceptibility ([3]; Sh1 (Staphylococcus hominis)) | Antibiotic susceptibility ([3]; Sh2 (Staphylococcus hominis)) | Antibiotic susceptibility ([3]; Sh3 (Staphylococcus hominis)) | Antibiotic susceptibility [4, 10] | Antibiotic susceptibility [4, 11]
